Test results: article PMC12332266 (Frontiers in Pharmacology, 2025)
Where two headings read alike, the source gives them in different places.

How the values were obtained:
[1] = tested on: hiPSC-CM (iCell Cardiomyocytes^2); assay: RTCA CardioECR assessment (impedance and electrophysiology parameters)
Procedure, shortened: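 iCell^2 cardiomyocytes on fibronectin-coated ePlates monitored continuously by impedance for cell index, beating rate and amplitude. Field potential duration and spike amplitude were recorded from day 4–6 after monolayer formation. Data were double-normalized to DMSO control and baseline, with variability given as SD.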

[2] = ref extensive literature search, cited from earlier work
[3] = tested on: hiPSC-CM (iCell Cardiomyocytes^2); assay: Intracellular miRNA expression by RT-qPCR in hiPSC-CM pellets after 72-hour treatment; settings: for fold induction at 0.01 µM / fold induction at 0.03 µM / fold induction at 0.1 µM / fold induction at 0.3 µM: Homo sapiens
Procedure, shortened: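 After 72-hour treatment and RTCA CardioECR assessment, total RNA from hiPSC-CM pellets was reverse transcribed, pre-amplified and quantified by TaqMan RT-qPCR against a 17-miRNA panel. Triplicates were pooled, so no statistical analysis was performed.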

[4] = hiPSC-CM, 72-hour treatment, lowest concentration causing at least 20% change from baseline
[5] = 72 h, read-out: hsa-miR-7-5p fold change
[6] = 72 h, read-out: hsa-miR-126-3p fold change
[7] = 72 h, read-out: hsa-miR-146b-5p fold change
[8] = 72 h, read-out: hsa-miR-182-5p fold change
[9] = 72 h, read-out: hsa-miR-185-3p fold change
[10] = 72 h, read-out: hsa-miR-187-3p fold change
[11] = 72 h, read-out: hsa-miR-208b-3p fold change
[12] = 72 h, read-out: hsa-miR-[…] change

Q: With CCCCCNC(=N)N/N=C/c1c[nH]c2ccc(OC)cc12 [Tegaserod] as the compound, how does the “Field Potential Duration MEC” value ([1]; hiPSC-CM, 72-hour treatment, at least 10% change) read?
A: 0.1 µM

Q: And the “Beating rate (BR) MEC” value [1, 4]?
A: ND (ND – not detected, magnitude of change was lower than 20%)

Q: And the “Cell index (CI) MEC” value [1, 4]?
A: ND (ND – not detected, magnitude of change was lower than 20%)

Q: And the “RTCA, MEC (BR)” value ([1]; hiPSC-CM, change ≥20%, Table 2)?
A: ND (ND – not detected, magnitude of change was lower than 20% for CI/BR)

Q: What about the “RTCA, MEC (CI)” value ([1]; hiPSC-CM, change ≥20%, Table 2) of the same compound?
A: ND (ND – not detected, magnitude of change was lower than 20% for CI/BR)

Q: What about the “Spike Amplitude (SA) MEC” value ([1]; human, 72 h) of the same compound?
A: 0.01 µM

Q: And the Cmax total ([2]; Supplementary Table 1)?
A: 80 nM

Q: What about the Cmax total ([2]; Table 1) of the same compound?
A: 80 nM

Q: What about the fold induction at 0.01 µM [3, 5] of the same compound?
A: 0.8

Q: What about the fold induction at 0.03 µM [3, 5] of the same compound?
A: 1.4

Q: And the fold induction at 0.1 µM [3, 5]?
A: 1.3

Q: What about the fold induction at 0.3 µM [3, 5] of the same compound?
A: 2

Q: What about the fold induction at 0.01 µM [3, 6] of the same compound?
A: 2

Q: And the fold induction at 0.03 µM [3, 6]?
A: 4.9

Q: And the fold induction at 0.1 µM [3, 6]?
A: 0.9

Q: And the fold induction at 0.3 µM [3, 6]?
A: 3.2

Q: And the fold induction at 0.01 µM [3, 7]?
A: 0.5

Q: What about the fold induction at 0.03 µM [3, 7] of the same compound?
A: 0.7

Q: And the fold induction at 0.1 µM [3, 7]?
A: 1.2

Q: What about the fold induction at 0.3 µM [3, 7] of the same compound?
A: 0.9

Q: And the fold induction at 0.01 µM [3, 8]?
A: 1.8

Q: What about the fold induction at 0.03 µM [3, 8] of the same compound?
A: 3.9

Q: What about the fold induction at 0.1 µM [3, 8] of the same compound?
A: 1.9

Q: And the fold induction at 0.3 µM [3, 8]?
A: 15.7

Q: What about the fold induction at 0.01 µM [3, 9] of the same compound?
A: 0.7

Q: And the fold induction at 0.03 µM [3, 9]?
A: 1.3

Q: And the fold induction at 0.1 µM [3, 9]?
A: 0.9

Q: And the fold induction at 0.3 µM [3, 9]?
A: 1

Q: And the fold induction at 0.01 µM [3, 10]?
A: 2.5

Q: What about the fold induction at 0.03 µM [3, 10] of the same compound?
A: 2

Q: What about the fold induction at 0.1 µM [3, 10] of the same compound?
A: 2

Q: What about the fold induction at 0.3 µM [3, 10] of the same compound?
A: 3.7

Q: What about the fold induction at 0.01 µM [3, 11] of the same compound?
A: 1.8

Q: What about the fold induction at 0.03 µM [3, 11] of the same compound?
A: 1.2

Q: What about the fold induction at 0.1 µM [3, 11] of the same compound?
A: 1.7

Q: And the fold induction at 0.3 µM [3, 11]?
A: 1.4

Q: What about the fold induction at 0.01 µM [3, 12] of the same compound?
A: 0.8

Q: And the fold induction at 0.03 µM [3, 12]?
A: 0.8

Q: And the fold induction at 0.1 µM [3, 12]?
A: 0.9

Q: What about the fold induction at 0.3 µM [3, 12] of the same compound?
A: 0.7

Q: And the “miRNAs upregulated at the MEC overall (hiPSC-CM pellet)” value ([3]; fold change ≥2, 72 h)?
A: miR-126-3p, miR-187-3p

Q: What about the “miRNAs hiPSC-CM pellet, MEC overall” value ([3]; lowest concentration tested which produced miRNA upregulation (fold change ≥2), 72 h) of the same compound?
A: 0.01 µM

Q: With COc1cccc2c1C(=O)c1c(O)c3c(c(O)c1C2=O)C[C@@](O)(C(C)=O)C[C@@H]3O[C@H]1C[C@H](N)[C@H](O)[C@H](C)O1 [Daunorubicin] as the compound, how does the “RTCA, MEC (CI)” value ([1]; human) read?
A: 0.1 µM (CI, BR)

Q: What about the “Beating Rate MEC” value ([1]; human, 72 h) of the same compound?
A: 0.1µM (+21%)

Q: And the “Beating rate (BR) MEC” value ([1]; human, 72 h)?
A: 0.1 (+21%) µM

Q: What about the “Contractility Amplitude MEC” value ([1]; human, 72 h) of the same compound?
A: 0.3µM (-82%)

Q: What about the “Field Potential Duration MEC” value ([1]; human, 72 h) of the same compound?
A: 0.1 µM

Q: What about the “RTCA, MEC (BR)” value ([1]; human, 72 h) of the same compound?
A: 0.1 µM (CI, BR)

Q: What about the “Spike Amplitude (SA) MEC” value ([1]; human, 72 h) of the same compound?
A: 0.1µM (-93%)

Q: And the Cmax total ([2]; Supplementary Table 1)?
A: 310 to 7840 nM

Q: And the Cmax total ([2]; Table 1)?
A: 310 to 7840 nM

Q: What about the “miRNAs hiPSC-CM pellet, MEC overall” value [3] of the same compound?
A: 0.1 µM

Q: And the “miRNAs upregulated at the MEC overall (hiPSC-CM pellet)” value [3]?
A: miR-96 -5p, miR-185-3p, miR-187-3p, miR-365a-5p
